From patent US20200080053A1, “USE OF PEPTIDE COMPOUNDS FOR PROMOTING SURVIVAL, GROWTH AND CELL DIFFERENTIATION” (Axoltis Pharma, priority 2016, published 2020)

What was measured:
[1] = system: ESCs / neuroepithelial progenitors; experiment: Selection of neuroepithelial progenitors from ESC embryoid bodies, Nestin immunostaining; type: cell-based
Experimental: For these experiments, the differentiation of ESCs was preferably orientated to the neuronal differentiation pathway, according to the protocol adapted from Okabe et al., (Mechanisms of Development, 59:89-102, 1996).
In brief, to start the differentiation, the ESCs were grown on gelatin without LIF for two days. The cells were carefullly trypsinated to collect small ESC aggregates. Then, these aggregates were transferred on a Petri dish without any coating to produce non-adherent spherical cell bodies, namely the embryoid bodies (EB).
After 5 days of culture, the EB were transferred onto a new Petri dish covered with gelatin to enable cell adhesion.
After 24h of culture, the culture medium with fetal bovine serum 10% was replaced by a culture medium serum free to select neuroepithelial progenitors and the peptide NX210 (SEQ ID NO: 6) was added in the culture medium at a concentration of 0.5 mg/ml.
After 6 days of culture, the maximal content of cells expressing the nestin protein (a cytoskeletal protein specific of the neuroepithelial progenitors) was reached.
The cell population enriched for neuroepithelial progenitors was then trypsinated and seeded at a concentration of 1×10^5 cells/cm^2 on a substrate made up of a polyornithine and laminin mix. […]

[2] = system: human mesenchymal stem cells (hMSC); experiment: Neural differentiation of hMSCs: immunocytochemical analysis (Nestin, MAP-2); type: cell-based; conditions: bFGF
Experimental: To investigate the neural differentiation capacity of the peptides, 25 cm^2 flasks and 12-wells culture plates were coated with sterile aqueous solutions of either NX210 or NS640 at a concentration of 80 μg/cm^2. Coatings were carried out at 37° C. and 5% CO2 over-night prior to cell plating.
On Day 0 (D0), hMSC were seeded at a concentration of 3,000 cells/cm^2 in pre-coated 25 cm^2 flasks or 12-well culture plates in complete medium and culture was placed at 37° C. in a humid environment and under 5% CO2. After 24h, medium was changed and replaced by different combinations of media containing either: MEMalpha—bFGF 12.5 ng/mL—FBS 2%—P/S 0.1%; MEMalpha—bFGF 12.5 ng/mL—FBS 10%—P/S 0.1%; MEMalpha—FBS 2%—P/S 0.1% (control condition); MEMalpha—FBS 10%—P/S 0.1% (control condition). The cells were placed at 37° C. in a humid environment and under 5% CO2, and medium was changed twice a week. On Day 8, medium was replaced by medium containing ATRA in the place of bFGF and thus was changed with: MEMalpha—ATRA […]—FBS 2%—P/S 0.1%; MEMalpha—ATRA 20 μM—FBS 10%—P/S 0.1%; MEMalpha—FBS 2%—P/S 0.1% (control condition); MEMalpha—FBS 10%—P/S 0.1% (control condition). The cells were placed at 37° C. in a humid environment and under 5% CO2. Medium was changed twice a week. On Day 15 (D15), cells were harvested by trypsinization for mRNA extraction or fixed immunocytochemical analysis.
Assessment of differentiation was performed by gene expression after extraction of mRNA at various time point (DO, D1, D8 and D15), and immunocytochemical analysis performed at the end of the culture period (D15).
Immunocytochemical analyses were carried out on cells fixed in 4% paraformaldehyde and using standard protocols. After blocking with Triton 1×0.1%/BSA 5% during 30 min, cells were incubated with antibodies directed against Nestin (Millipore) or MAP-2 (Sigma) overnight at +4° C. After washing, appropriate FITC or Cyandidine-5 labelled secondary antibody are added. Nuclei were counterstained with Hoescht 33258 (Sigma). Obervations were performed using Leica TCS LSI system.

[3] = 2% FBS, with or without peptide coating (FIG. 8)

## W-S-G-W-S-S-C-S-R-S-C-G (WSGWSSCSRSCG) [NX210]
[1]; 0.5 mg/ml NX210 in serum free medium, then 2 days with FGF2, compared to untreated culture
  cells expressing the Nestin protein (neuronal precursors): More cells expressing the Nestin protein
[1]; during selection of the neuroepithelial progenitors
  response to the specific stimulation by FGF2: promotes a more efficient response
[2]; [3]
  MAP-2 marker expression (immunocytochemistry staining): stronger staining
  Nestine marker expression (immunocytochemistry staining): stronger staining
[2]; 10% FBS, peptide coating (FIG. 8)
  MAP-2 protein presence: makes possible to observe MAP-2 protein presence
[2]; 10% FBS, with or without peptide coating, compared to the control condition (FIG. 8)
  Nestine expression (staining intensity): maximized
